For seven compounds, IC50 and EC50 results are on record in ChEMBL document CHEMBL1151687, “Search for alpha-helical propensity in the receptor-bound conformation of glucagon-like peptide-1” (Bioorg Med Chem, 2008).

One may read the IC50 as the concentration that inhibits the measured activity by half. Low values mean greater potency, high ones weaker potency. As usually defined, the EC50 is the concentration giving half of the maximal effect.

For test [1], the target named is T1, Glucagon-like peptide 1 receptor (Homo sapiens, UniProt P43220). Briefly: Displacement of [125I]exendin(9-39) from human GLP1R expressed in HEK293 cells. The test is classed as cell-based. In general terms: Loss of bound radioactivity is the signal in a displacement assay; it reports binding, not function.
For test [2], the target named is T1, Glucagon-like peptide 1 receptor. Briefly: Activation of human GLP1R expressed in HEK293 cells assessed as effect on cAMP responsive element promoter driven luciferase expression. Type of test: functional, cell-based.

Molecules are shown by their SMILES. Positions of bridges follow the written chain, without caps; N, C: chain ends. Residues, ends and D or L forms follow the SMILES beside them.

T1 sequence (P43220 whole entry): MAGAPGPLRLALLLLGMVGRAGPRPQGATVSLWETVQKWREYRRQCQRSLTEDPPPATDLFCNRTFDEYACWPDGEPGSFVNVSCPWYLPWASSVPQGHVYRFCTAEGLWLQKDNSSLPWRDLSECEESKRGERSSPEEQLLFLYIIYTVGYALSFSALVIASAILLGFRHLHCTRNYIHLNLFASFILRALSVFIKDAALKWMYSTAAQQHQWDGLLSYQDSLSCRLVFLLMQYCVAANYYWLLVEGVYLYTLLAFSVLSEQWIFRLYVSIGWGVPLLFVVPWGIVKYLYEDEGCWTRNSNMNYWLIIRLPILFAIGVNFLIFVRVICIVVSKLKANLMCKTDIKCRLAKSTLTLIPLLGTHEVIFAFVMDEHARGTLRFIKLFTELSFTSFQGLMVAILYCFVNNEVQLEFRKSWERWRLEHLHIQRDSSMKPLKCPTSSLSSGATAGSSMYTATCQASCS

With `CC[C@H](C)[C@H](NC(=O)[C@H](CCC(=O)O)NC(=O)[C@H](CCCCN)NC(=O)[C@H](C)NC(=O)[C@H](C)NC(=O)[C@H](CCC(N)=O)NC(=O)CNC(=O)[C@H](CCC(=O)O)NC(=O)[C@H](CC(C)C)NC(=O)[C@H](Cc1ccc(O)cc1)NC(=O)[C@H](CO)NC(=O)[C@H](CO)NC(=O)[C@@H](NC(=O)[C@H](CCC(N)=O)NC(=O)[C@H](CO)NC(=O)[C@@H](NC(=O)[C@H](Cc1ccccc1)NC(=O)[C@H](CCCCNC(C)=O)NC(=O)CNC(=O)[C@H](CCC(=O)O)NC(=O)[C@H](C)NC(=O)[C@@H](N)Cc1cnc[nH]1)[C@@H](C)O)C(C)C)C(=O)N[C@@H](Cc1ccccc1)C(=O)N[C@@H](C)C(=O)N[C@@H](Cc1c[nH]c2ccccc12)C(=O)N[C@@H](CC(C)C)C(=O)N[C@H](C(=O)N[C@@H](CCCCN)C(=O)NCC(=O)N[C@@H](CCCN=C(N)N)C(N)=O)C(C)C` (H-HAEGK(Ac)FTSQVSSYLEGQAAKEIFAWLVKGR-NH2), the concentration for half-maximal inhibition (IC50) in test [1] was determined as 440 nM. The EC50 in test [2] was determined as 24 nM.
As for `CC[C@H](C)[C@H](NC(=O)[C@H](Cc1ccccc1)NC(=O)[C@H](CCC(=O)O)NC(=O)[C@H](CCCCN)NC(=O)[C@@H]1CCC(=O)NCCCC[C@H](NC(=O)[C@H](CC(C)C)NC(=O)[C@H](Cc2ccc(O)cc2)NC(=O)[C@H](CO)NC(=O)[C@H](CO)NC(=O)[C@@H](NC(=O)[C@H](CC(=O)O)NC(=O)[C@H](CO)NC(=O)[C@@H](NC(=O)[C@H](Cc2ccccc2)NC(=O)[C@@H](NC(=O)CNC(=O)[C@H](CCC(=O)O)NC(=O)[C@H](C)NC(=O)[C@@H](N)Cc2cnc[nH]2)[C@@H](C)O)[C@@H](C)O)C(C)C)C(=O)NCC(=O)N[C@@H](CCC(N)=O)C(=O)N[C@@H](C)C(=O)N1)C(=O)N[C@@H](C)C(=O)N[C@@H](Cc1c[nH]c2ccccc12)C(=O)N[C@@H](CC(C)C)C(=O)N[C@H](C(=O)N[C@@H](CCCCN)C(=O)NCC(=O)N[C@@H](CCCNC(=N)N)C(N)=O)C(C)C` (H-HAEGTFTSDVSSYLKGQAEKEFIAWLVKGR-NH2; lactam 15-19), in test [1] (hek293), the half-maximal inhibitory concentration (IC50) came to 9200 nM. Besides, in test [2] (hek293), the half-maximal effective concentration (EC50) turned out to be 1.1 nM.
In test [1], `CC[C@H](C)[C@H](NC(=O)[C@H](CCC(=O)O)NC(=O)[C@H](CCCCN)NC(=O)[C@H](CCC(N)=O)NC(=O)[C@H](C)NC(=O)[C@H](CCC(N)=O)NC(=O)CNC(=O)[C@H](CCCCNC(C)=O)NC(=O)[C@H](CC(C)C)NC(=O)[C@H](Cc1ccc(O)cc1)NC(=O)[C@H](CO)NC(=O)[C@H](CO)NC(=O)[C@@H](NC(=O)[C@H](CC(=O)O)NC(=O)[C@H](CO)NC(=O)[C@@H](NC(=O)[C@H](Cc1ccccc1)NC(=O)[C@@H](NC(=O)CNC(=O)[C@H](CCC(=O)O)NC(=O)[C@H](C)NC(=O)[C@@H](N)Cc1cnc[nH]1)[C@@H](C)O)[C@@H](C)O)C(C)C)C(=O)N[C@@H](Cc1ccccc1)C(=O)N[C@@H](C)C(=O)N[C@@H](Cc1c[nH]c2ccccc12)C(=O)N[C@@H](CC(C)C)C(=O)N[C@H](C(=O)N[C@@H](CCCCN)C(=O)NCC(=O)N[C@@H](CCCNC(=N)N)C(N)=O)C(C)C` (H-HAEGTFTSDVSSYLK(Ac)GQAQKEIFAWLVKGR-NH2) showed an IC50 of 1600 nM. Also, the EC50 in test [2] worked out at 0.12 nM.
`CC[C@H](C)[C@H](NC(=O)[C@H](Cc1ccccc1)NC(=O)[C@H](CCC(=O)O)NC(=O)[C@H](CCCCN)NC(=O)[C@H](C)NC(=O)[C@@H]1CCC(=O)NCCCC[C@H](NC(=O)[C@H](Cc2ccc(O)cc2)NC(=O)[C@H](CO)NC(=O)[C@H](CO)NC(=O)[C@@H](NC(=O)[C@H](CC(=O)O)NC(=O)[C@H](CO)NC(=O)[C@@H](NC(=O)[C@H](Cc2ccccc2)NC(=O)[C@@H](NC(=O)CNC(=O)[C@H](CCC(=O)O)NC(=O)[C@H](C)NC(=O)[C@@H](N)Cc2cnc[nH]2)[C@@H](C)O)[C@@H](C)O)C(C)C)C(=O)N[C@@H](CCC(=O)O)C(=O)NCC(=O)N[C@@H](CCC(N)=O)C(=O)N1)C(=O)N[C@@H](C)C(=O)N[C@@H](Cc1c[nH]c2ccccc12)C(=O)N[C@@H](CC(C)C)C(=O)N[C@H](C(=O)N[C@@H](CCCCN)C(=O)NCC(=O)N[C@@H](CCCNC(=N)N)C(N)=O)C(C)C` (H-HAEGTFTSDVSSYKEGQEAKEFIAWLVKGR-NH2; lactam 14-18): in test [1] (hek293), the IC50 came to 3000 nM. Besides, the EC50 in test [2] (hek293) is 0.36 nM.
On to `CC[C@H](C)[C@H](NC(=O)[C@H](Cc1ccccc1)NC(=O)[C@H](CCC(=O)O)NC(=O)[C@H](CCCCN)NC(=O)[C@H](C)NC(=O)[C@H](C)NC(=O)[C@H](CCC(N)=O)NC(=O)[C@@H]1CCC(=O)NCCCC[C@H](NC(=O)[C@H](CO)NC(=O)[C@@H](NC(=O)[C@H](CC(=O)O)NC(=O)[C@H](CO)NC(=O)[C@@H](NC(=O)[C@H](Cc2ccccc2)NC(=O)[C@@H](NC(=O)CNC(=O)[C@H](CCC(=O)O)NC(=O)[C@H](C)NC(=O)[C@@H](N)Cc2cnc[nH]2)[C@@H](C)O)[C@@H](C)O)C(C)C)C(=O)N[C@@H](Cc2ccc(O)cc2)C(=O)N[C@@H](CC(C)C)C(=O)N[C@@H](CCC(=O)O)C(=O)N1)C(=O)N[C@@H](C)C(=O)N[C@@H](Cc1c[nH]c2ccccc12)C(=O)N[C@@H](CC(C)C)C(=O)N[C@H](C(=O)N[C@@H](CCCCN)C(=O)NCC(=O)N[C@@H](CCCN=C(N)N)C(N)=O)C(C)C` (H-HAEGTFTSDVSKYLEEQAAKEFIAWLVKGR-NH2; lactam 12-16), for which the half-maximal inhibitory concentration (IC50) in test [1] worked out at 15.1 nM. Moreover, the concentration giving a half-maximal response (EC50) in test [2] turned out to be 0.002 nM.
In test [1] (hek293), `CC[C@H](C)[C@H](NC(=O)[C@H](CCC(=O)O)NC(=O)[C@H](CCCCN)NC(=O)[C@H](C)NC(=O)[C@H](C)NC(=O)[C@H](CCC(N)=O)NC(=O)CNC(=O)[C@H](CCC(=O)O)NC(=O)[C@H](CC(C)C)NC(=O)[C@H](Cc1ccc(O)cc1)NC(=O)[C@H](CO)NC(=O)[C@H](CO)NC(=O)[C@@H](NC(=O)[C@H](CC(=O)O)NC(=O)[C@H](CO)NC(=O)[C@@H](NC(=O)[C@H](Cc1ccccc1)NC(=O)[C@@H](NC(=O)CNC(=O)[C@H](CCC(=O)O)NC(=O)[C@H](C)NC(=O)[C@@H](N)Cc1cnc[nH]1)[C@@H](C)O)[C@@H](C)O)C(C)C)C(=O)N[C@@H](Cc1ccccc1)C(=O)N[C@@H](C)C(=O)N[C@@H](Cc1c[nH]c2ccccc12)C(=O)N[C@@H](CC(C)C)C(=O)N[C@H](C(=O)N[C@@H](CCCCN)C(=O)NCC(=O)N[C@@H](CCCN=C(N)N)C(=O)O)C(C)C` (H-HAEGTFTSDVSSYLEGQAAKEIFAWLVKGR-OH) yielded an IC50 of 2.6 nM. For the same compound, in test [2] (hek293), the EC50 is 0.0036 nM.
`CC[C@H](C)[C@H](NC(=O)[C@H](CCC(=O)O)NC(=O)[C@H](CCCCN)NC(=O)[C@H](C)NC(=O)[C@H](C)NC(=O)[C@H](CCC(N)=O)NC(=O)[C@H](CCC(N)=O)NC(=O)[C@H](CCC(=O)O)NC(=O)[C@H](CC(C)C)NC(=O)[C@H](Cc1ccc(O)cc1)NC(=O)[C@H](CCCCNC(C)=O)NC(=O)[C@H](CO)NC(=O)[C@@H](NC(=O)[C@H](CC(=O)O)NC(=O)[C@H](CO)NC(=O)[C@@H](NC(=O)[C@H](Cc1ccccc1)NC(=O)[C@@H](NC(=O)CNC(=O)[C@H](CCC(=O)O)NC(=O)[C@H](C)NC(=O)[C@@H](N)Cc1cnc[nH]1)[C@@H](C)O)[C@@H](C)O)C(C)C)C(=O)N[C@@H](Cc1ccccc1)C(=O)N[C@@H](C)C(=O)N[C@@H](Cc1c[nH]c2ccccc12)C(=O)N[C@@H](CC(C)C)C(=O)N[C@H](C(=O)N[C@@H](CCCCN)C(=O)NCC(=O)N[C@@H](CCCNC(=N)N)C(N)=O)C(C)C` (H-HAEGTFTSDVSK(Ac)YLEQQAAKEIFAWLVKGR-NH2): in test [1], the IC50 came to 17 nM. In addition, the concentration giving a half-maximal response (EC50) in test [2] was determined as 0.0038 nM.
